Reference: patent US12492208B2, “Crystal of pyrimidine compound” (TAIHO PHARMACEUTICAL CO., LTD., priority 2020, dated 2025)

Assays:
Ba/F3-HER2insYVMA cells = experiment: Growth inhibitory activity against HER2 exon 20 insertion mutant expressing cell line; format: cell-based; details: Mus musculus, 72 h, 3 days, CellTiter-Glo 2.0, read-out: HER2ex20insYVMA cell growth inhibitory activity IC50 value
Protocol: Growth inhibitory activity against the HER2 exon 20 insertion mutant was measured using Ba/F3 cells that were a mouse B lymphocyte precursor cell line, into which a human HER2 exon 20 insertion mutant gene had been introduced. The Ba/F3 cells were maintained in an RPMI-1640 medium (Thermo Fisher Scientific) supplemented with 10% fetal bovine serum (FBS), 100 U/mL penicillin, 100 μg/mL streptomycin (Thermo Fisher Scientific) and 1 ng/mL mouse interleukin-3 (mIL-3) (CST).
Upon evaluation of cell growth inhibitory activity, the Ba/F3-HER2insYVMA cells were suspended in an RPMI-1640 medium supplemented with 10% FBS, 100 U/mL penicillin, and 100 μg/mL streptomycin. The cell suspension was seeded in each well of a 96-well flat-bottom microplate, and was then cultured in a 5% carbon dioxide gas-containing culture vessel at 37° C. for 1 day. The compound (I) obtained according to the method in Synthesis Example 1 was dissolved in DMSO, and was then diluted with DMSO or the medium used in the suspension of the cells. The obtained solution was then added to each well of the culture plate, so that the final concentration of DMSO became 0.2%. […] After completion of the culture for 3 days in the presence of the compound, the cells were counted using CellTiter-Glo 2.0 (manufactured by Promega), and the growth inhibition percentage was then calculated according to the following equation. […]

SK-BR-3 cells = experiment: Growth inhibitory activity against HER2 expressing cell line; format: cell-based; details: Homo sapiens, SK-BR-3, 72 h; 3 days, CellTiter-Glo 2.0
Protocol: SK-BR-3 cells as a HER2 overexpressing human breast cancer cell line were suspended in a McCoy's 5a medium (manufactured by Life Technologies) supplemented with 10% fetal bovine serum. The cell suspension was seeded in each well of a 384-well flat-bottom microplate, and was then cultured in a 5% carbon dioxide gas-containing culture vessel at 37° C. for 1 day. Thereafter, the compound (I) obtained according to the method in Synthesis Example 1 was dissolved in DMSO, and the compound was diluted to 500 times the final concentration in DMSO. The compound in the DMSO solution was diluted with DMSO solution or the medium used in the suspension of the cells, and the obtained solution was then added to each well of the culture plate so that the final concentration of DMSO was 0.2%. The obtained mixture was further cultured in the 5% carbon dioxide gas-containing culture vessel at 37° C. for 3 days. After completion of the culture for 3 days in the presence of the compound, the cells were counted using CellTiter-Glo 2.0 (manufactured by Promega), and the growth inhibition percentage was then calculated according to the following equation. The concentration of the compound, in which the growth of the cells can be inhibited by 50%, was defined as IC50 (nM). […]

[1] = target: T1, recombinant human HER2 exon 20 insertion mutant (A775_G776insYVMA) protein (Homo sapiens, UniProt P04626, INS775YVMA); experiment: Inhibitory action (in vitro) against HER2 exon 20 insertion mutant phosphorylation activity; format: biochemical; details: pre-incubated 30 minutes, ATP 200 μM, 220 minutes; read-out: HER2ex20insYVMA inhibitory activity IC50 value
T1 construct: purchased SignalChem
T1 sequence (P04626 with tags, fused parts or gaps INS775YVMA limits assumed): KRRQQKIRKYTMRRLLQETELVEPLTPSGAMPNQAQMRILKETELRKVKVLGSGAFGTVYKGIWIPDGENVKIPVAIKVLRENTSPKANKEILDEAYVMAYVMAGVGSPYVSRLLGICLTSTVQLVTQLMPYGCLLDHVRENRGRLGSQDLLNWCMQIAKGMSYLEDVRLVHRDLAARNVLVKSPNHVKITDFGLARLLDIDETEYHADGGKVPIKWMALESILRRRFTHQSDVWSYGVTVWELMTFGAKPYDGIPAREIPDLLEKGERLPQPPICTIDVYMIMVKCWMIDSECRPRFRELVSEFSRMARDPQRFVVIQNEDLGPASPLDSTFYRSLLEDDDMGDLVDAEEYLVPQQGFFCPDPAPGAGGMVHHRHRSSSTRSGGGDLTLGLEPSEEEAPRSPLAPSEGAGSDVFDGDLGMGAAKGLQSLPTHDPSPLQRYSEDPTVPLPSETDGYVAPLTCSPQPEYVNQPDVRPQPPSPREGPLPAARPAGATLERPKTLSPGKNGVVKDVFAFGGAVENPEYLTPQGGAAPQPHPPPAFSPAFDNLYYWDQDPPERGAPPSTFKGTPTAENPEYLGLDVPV
Text: In order to determine conditions for a method of measuring the in vitro inhibitory activity of a compound against HER2 exon 20 insertion mutant phosphorylation activity, as in the case of HER2, ProfilerPro Peptide 22 was used as a substrate. A purified recombinant human HER2 exon 20 insertion mutant (A775_G776insYVMA) protein was purchased from SignalChem. Upon the measurement of the inhibitory activity of the compound, first, the compound (I) obtained according to the method in Synthesis Example 1 was diluted stepwise with dimethyl sulfoxide (DMSO). Subsequently, the HER2 exon 20 insertion mutant protein and the compound (I) in DMSO solution (final concentration of DMSO: 5%) were added into a buffer for the kinase reaction (13.5 mM Tris (pH 7.5), 2 mM dithiothreitol, and 0.009% Tween 20), and the obtained mixture was then pre-incubated at 25° C. for 30 minutes. […] Finally, using LabChip (registered trademark) EZ Reader II (PerkinElmer), an unphosphorylated substrate peptide(S) and a phosphorylated peptide (P) were separated and detected according to microchannel capillary electrophoresis. […]

IC50 (Ba/F3-HER2insYVMA cells): 29 nM
IC50 (SK-BR-3 cells): 6.6 nM
IC50 [1]: < 0.3 nM
SMILES: C=CC(=O)N1C[C@H](n2c(C#CC3CC3)c(C(=O)N[C@H](C)c3ccccc3)c3c(N)ncnc32)C[C@@H]1C [compound (I), 7-((3R,5S)-1-acryloyl-5-methylpyrrolidin-3-yl)-4-amino-6-(cyclopropylethynyl)-N—((R)-1-phenylethyl)-7H-pyrrolo[2,3-d]pyrimidine-5-carboxamide]
